{"source": "patent US20040229960A1", "about": "“Compositions and methods of administering tubulin binding agents for the treatment of ocular diseases” (priority 2001, published 2004)", "origin": "cited, not measured here", "conditions": "cited from earlier work"}
{"compound": "COc1ccc(/C=C\\c2cc(OC)c(OC)c(OC)c2)cc1O", "note": "[CA4, combretastatin A4]", "values": [{"measurement": "Solubility in water", "value": "essentially insoluble in water"}]}
